Results from PubChem BioAssay (NCI).
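Each compound was tested at five concentrations against cells in 96-well plates for 48 hours. The concentration for full growth arrest is given as TGI.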

Experiments:
Test in all cases: NCI tumour cell line growth inhibition, 48 h
[1] = system: 786-0 renal
[2] = system: A549 NSCLC
[3] = system: ACHN renal
[4] = system: BT-549 breast
[5] = system: CCRF-CEM leukemia
[6] = system: COLO 205 colon
[7] = system: DU-145 prostate
[8] = system: EKVX NSCLC
[9] = system: HCC-2998 colon
[10] = system: HCT-116 colon
[11] = system: HCT-15 colon
[12] = system: HL-60(TB) leukemia
[13] = system: HOP-62 NSCLC
[14] = system: HOP-92 NSCLC
[15] = system: HS 578T breast
[16] = system: HT29 colon
[17] = system: IGROV1 ovarian
[18] = system: K-562 leukemia
[19] = system: KM12 colon
[20] = system: M14 melanoma
[21] = system: MALME-3M melanoma
[22] = system: MCF7 breast
[23] = system: MDA-MB-231 breast
[24] = system: MDA-MB-435
[25] = system: MDA-N
[26] = system: MOLT-4 leukemia
[27] = system: NCI-H226 lung
[28] = system: NCI-H23 lung
[29] = system: NCI-H460 lung
[30] = system: NCI-H522 lung
[31] = system: NCI/ADR-RES ovarian
[32] = system: OVCAR-3 ovarian
[33] = system: OVCAR-4 ovarian
[34] = system: OVCAR-5 ovarian
[35] = system: OVCAR-8 ovarian
[36] = system: PC-3 prostate
[37] = system: RPMI-8226 leukemia
[38] = system: RXF 393 renal
[39] = system: SF-268 CNS
[40] = system: SF-295 CNS
[41] = system: SF-539 CNS
[42] = system: SK-MEL-28 melanoma
[43] = system: SK-MEL-5 melanoma
[44] = system: SN12C renal
[45] = system: SNB-19 CNS
[46] = system: SNB-75 CNS
[47] = system: SR leukemia
[48] = system: SW-620 colon
[49] = system: T-47D breast
[50] = system: TK-10 renal
[51] = system: U251 CNS
[52] = system: UACC-62 melanoma
[53] = system: A498 renal
[54] = system: CAKI-1 renal
[55] = system: LOX IMVI melanoma
[56] = system: SK-MEL-2 melanoma
[57] = system: SK-OV-3 ovarian
[58] = system: UACC-257 melanoma
[59] = system: UO-31 renal

O=C(NC1=C(Cl)C(=O)c2ccccc2C1=O)c1ccccc1
TGI [1]: > 100 µM | TGI [2]: > 100 µM | TGI [3]: 40 µM | TGI [4]: 44.4 µM | TGI [5]: > 100 µM | TGI [6]: 30 µM | TGI [7]: > 100 µM | TGI [8]: > 100 µM | TGI [9]: > 100 µM | TGI [10]: 32.2 µM | TGI [11]: 62.6 µM | TGI [12]: > 100 µM | TGI [13]: > 100 µM | TGI [14]: 39.9 µM | TGI [15]: > 100 µM | TGI [16]: 66.1 µM | TGI [17]: > 100 µM | TGI [18]: 54.3 µM | TGI [19]: > 100 µM | TGI [20]: > 100 µM | TGI [21]: 31.3 µM | TGI [22]: 39.2 µM | TGI [23]: > 100 µM | TGI [24]: 47.6 µM | TGI [25]: 28.1 µM | TGI [26]: 58.8 µM | TGI [27]: 69 µM | TGI [28]: 71.7 µM | TGI [29]: > 100 µM | TGI [30]: 52.3 µM | TGI [31]: 39.1 µM | TGI [32]: 42.7 µM | TGI [33]: > 100 µM | TGI [34]: > 100 µM | TGI [35]: > 100 µM | TGI [36]: > 100 µM | TGI [37]: > 100 µM | TGI [38]: 34 µM | TGI [39]: > 100 µM | TGI [40]: > 100 µM | TGI [41]: > 100 µM | TGI [42]: > 100 µM | TGI [43]: 78.9 µM | TGI [44]: > 100 µM | TGI [45]: > 100 µM | TGI [46]: > 100 µM | TGI [47]: > 100 µM | TGI [48]: 33.4 µM | TGI [49]: 47.4 µM | TGI [50]: 52.5 µM | TGI [51]: 81.1 µM | TGI [52]: 90.7 µM

O=C(CSc1nnc(-c2ccccn2)s1)N/N=C/c1ccccc1
TGI [1]: > 100 µM | TGI [53]: > 100 µM | TGI [2]: > 100 µM | TGI [3]: > 100 µM | TGI [4]: > 100 µM | TGI [54]: > 100 µM | TGI [5]: > 100 µM | TGI [6]: > 100 µM | TGI [7]: > 100 µM | TGI [10]: > 100 µM | TGI [11]: > 100 µM | TGI [13]: > 100 µM | TGI [14]: > 100 µM | TGI [15]: > 100 µM | TGI [16]: > 100 µM | TGI [17]: > 100 µM | TGI [18]: > 100 µM | TGI [19]: > 100 µM | TGI [55]: > 100 µM | TGI [20]: > 100 µM | TGI [21]: > 100 µM | TGI [22]: > 100 µM | TGI [23]: > 100 µM | TGI [24]: > 100 µM | TGI [25]: > 100 µM | TGI [26]: > 100 µM | TGI [27]: > 100 µM | TGI [28]: > 100 µM | TGI [29]: > 100 µM | TGI [30]: > 100 µM | TGI [31]: > 100 µM | TGI [32]: > 100 µM | TGI [33]: > 100 µM | TGI [34]: > 100 µM | TGI [35]: > 100 µM | TGI [36]: > 100 µM | TGI [39]: > 100 µM | TGI [40]: > 100 µM | TGI [41]: > 100 µM | TGI [56]: > 100 µM | TGI [42]: > 100 µM | TGI [43]: > 100 µM | TGI [57]: > 100 µM | TGI [44]: > 100 µM | TGI [45]: > 100 µM | TGI [46]: 17 µM | TGI [47]: > 100 µM | TGI [48]: > 100 µM | TGI [49]: > 100 µM | TGI [50]: > 100 µM | TGI [51]: > 100 µM | TGI [58]: > 100 µM | TGI [52]: > 100 µM | TGI [59]: > 100 µM

O=c1oc2ccccc2c(Nc2ccc3c(c2)Sc2ccccc2O3)c1[N+](=O)[O-]
TGI [1]: 53.1 µM | TGI [2]: > 100 µM | TGI [3]: 44.7 µM | TGI [4]: 85.4 µM | TGI [54]: > 100 µM | TGI [5]: 81 µM | TGI [6]: 32.1 µM | TGI [7]: > 100 µM | TGI [8]: 90.6 µM | TGI [9]: 39.9 µM | TGI [10]: > 100 µM | TGI [11]: > 100 µM | TGI [12]: 49.7 µM | TGI [13]: > 100 µM | TGI [14]: 71.2 µM | TGI [15]: > 100 µM | TGI [16]: 65.9 µM | TGI [17]: > 100 µM | TGI [18]: 57.9 µM | TGI [19]: 94.3 µM | TGI [55]: > 100 µM | TGI [20]: > 100 µM | TGI [21]: 65.7 µM | TGI [22]: 43 µM | TGI [23]: 47.9 µM | TGI [24]: > 100 µM | TGI [25]: > 100 µM | TGI [27]: 76.5 µM | TGI [28]: 86.7 µM | TGI [29]: 55.3 µM | TGI [30]: 48 µM | TGI [31]: > 100 µM | TGI [32]: 47.5 µM | TGI [33]: > 100 µM | TGI [34]: > 100 µM | TGI [35]: > 100 µM | TGI [36]: 38.9 µM | TGI [37]: 37.8 µM | TGI [38]: 61.9 µM | TGI [39]: > 100 µM | TGI [40]: 60.6 µM | TGI [41]: 85 µM | TGI [56]: 54.7 µM | TGI [42]: 73.3 µM | TGI [43]: 32.4 µM | TGI [57]: > 100 µM | TGI [44]: > 100 µM | TGI [45]: > 100 µM | TGI [46]: 58.3 µM | TGI [47]: 57.3 µM | TGI [49]: 69.7 µM | TGI [50]: 53.9 µM | TGI [51]: 41.7 µM | TGI [58]: 55.7 µM | TGI [52]: > 100 µM | TGI [59]: > 100 µM

O=C(/C=C/c1ccc(O)c(O)c1)OCC(OC(=O)/C=C/c1ccc(O)c(O)c1)C(=O)O (centres undefined)
TGI [1]: > 100 µM | TGI [53]: > 100 µM | TGI [2]: > 100 µM | TGI [3]: > 100 µM | TGI [4]: > 100 µM | TGI [54]: > 100 µM | TGI [5]: > 100 µM | TGI [6]: > 100 µM | TGI [7]: > 100 µM | TGI [8]: > 100 µM | TGI [9]: > 100 µM | TGI [10]: > 100 µM | TGI [11]: > 100 µM | TGI [13]: > 100 µM | TGI [14]: > 100 µM | TGI [15]: > 100 µM | TGI [16]: > 100 µM | TGI [17]: > 100 µM | TGI [18]: > 100 µM | TGI [19]: > 100 µM | TGI [55]: > 100 µM | TGI [20]: > 100 µM | TGI [22]: > 100 µM | TGI [23]: > 100 µM | TGI [24]: > 100 µM | TGI [25]: > 100 µM | TGI [26]: > 100 µM | TGI [27]: > 100 µM | TGI [28]: > 100 µM | TGI [29]: > 100 µM | TGI [30]: > 100 µM | TGI [31]: > 100 µM | TGI [32]: > 100 µM | TGI [33]: > 100 µM | TGI [34]: > 100 µM | TGI [35]: > 100 µM | TGI [36]: > 100 µM | TGI [37]: > 100 µM | TGI [38]: > 100 µM | TGI [39]: > 100 µM | TGI [40]: > 100 µM | TGI [41]: > 100 µM | TGI [56]: > 100 µM | TGI [42]: > 100 µM | TGI [43]: > 100 µM | TGI [57]: > 100 µM | TGI [44]: > 100 µM | TGI [45]: > 100 µM | TGI [46]: > 100 µM | TGI [47]: > 100 µM | TGI [48]: > 100 µM | TGI [49]: > 100 µM | TGI [50]: > 100 µM | TGI [51]: > 100 µM | TGI [58]: > 100 µM | TGI [52]: > 100 µM | TGI [59]: > 100 µM
